Source: US8795734B2, “Hydrophobic nanotubes and nanoparticles as transporters for the delivery of drugs into cells” (The Board of Trustees of the Leland Stanford Junior …, priority 2005, dated 2014)

Legend:
[1] = system: CXCR4; assay: Silencing by PL-PEG-s-s-siRNA conjugates of different nanoparticles; type: cell-based
Excerpt: Conjugates as prepared according to Examples 24-27 were made with nanoparticles other than SWNTs. It was shown that MWNTs, carbon black nanoparticles can all be used to make noncovalent PL-PEG-s-s-siRNA conjugates. […] Referring to FIG. 10A, the silencing effect for these conjugates is shown with reference to SWNT conjugates. The experiments were done with the following:
Referring now to FIG. 10B, CXCR4 silencing is shown for different nanoparticles. Polystyrene spheres (PS, 20 nm and 50 nm) were also used to make noncovalent PL-PEG-s-s-siRNA conjugates. […] The data in FIG. 10B below compares the RNAi effects of PS delivery vs. nanotube delivery.

[2] = system: HL60 cells; assay: Cellular uptake of SWNT conjugates by confocal microscopy and flow cytometry; type: cell-based, human; settings: protein alone, versus untreated cells
Description: HL60 and Jurkat cells were both grown in RPMI-1640 cell culture medium (Invitrogen) supplemented with 10% fetal bovine serum (FBS). Prior to incubation, the cells were collected by centrifugation and resuspended in RPMI medium at a cell density of 3μ 10^6 cells/mL. Incubation of cells in a nanotube solution was done by mixing 100 μL of the cell suspension with 100 μL of a SWNT solution (2, 3 or 4) at 37° C. unless otherwise stated. The concentration of SWNT in the incubation solution was ˜0.05 mg/mL unless otherwise stated, and the incubation duration was always 1 h in 5% CO2 atmosphere except for time dependent incubation experiments. After incubation, the cells were washed and collected by centrifugation twice, and resuspended in RPMI medium.
FM4-64 (Molecular Probes Inc.) is a classical marker used for staining membrane and endosomes. The cell incubations were carried out under similar conditions as discussed in the previous section, except that FM 4-64 (2% v/v) was added to the incubation mixture. […]
Also, cells were analyzed by a Becton-Dickinson FACScan instrument after incubation in various nanotube solutions. […] We carried out dual detection of red and green fluorescence with the cells. The data presented here represent the mean green fluorescence obtained with a population of 10,000 live cells.

[3] = system: HL-60 cells; assay: Cell proliferation CellTiter 96 MTS assay; type: cell-based, human; settings: 2 h incubation, monitored up to 5 days versus untreated cells
Description: After incubation with the SWNT-streptavidin conjugate (unlabeled), HL-60 cells were washed and resuspended in RPMI media. The cells were plated in a 6-well plate at a density of ˜8×10^3 cells/well. At 24 h interval, Celltiter96 reagent (Promega) was added to one of the wells and allowed to incubate for ˜2-3 h at 37° C. and 5% CO2. The CellTiter 96 assay uses the tetrazolium compound (3-(4,5-dimethylthiazol-2-yl)-5-(3-carboxymethoxyphenyl)-2-(4-sulfophenyl)-2H-tetrazolium, inner salt; MTS) and the electron-coupling reagent, phenazine methosulfate (PMS). […] The measurement of the absorbance of the formazan can be carried out at 490 nm. […]
We used the CellTiter 96 MTS assay (Promega) to examine the proliferation of HL60 cells following exposure to SWNT-protein conjugates. […] The absorbance of the formazan salt can be measured at 490 nm and correlates to the number of cells in the suspension. The absorbance from the cells incubated with the SWNT-protein conjugates was measured over a period of 5 days in parallel with control cells never exposed to any nanotubes. The absorbance detected by a UV-VIS spectrophotometer was very similar for cells with and without exposure to SWNTs over the 5-day monitoring period.
Cells were incubated with SWNT-SA conjugate (without fluorescent label) for 2 hrs. […] The absorbance is then taken at 490 nm.

[4] = system: HL60 and HeLa cells; assay: Internalization of SWNT-protein, SWNT-DNA and SWNT-SS-DNA conjugates (fluorescence confocal, flow cytometry); type: cell-based, human
Description: Two cell lines, human promyelomonocytic HL60 cells and cervical cancer HeLa cells were used in the current work. HL60 were cultured in RPMI medium supplemented with 10% fetal bovine serum (FBS), while HeLa cells were cultured in DMEM medium supplemented with 10% FBS and 1% penicillin-streptomycin. The cells were suspended in phosphate buffered saline (PBS), mixed with a SWNT conjugate and incubated for 1-3 h at 37° C., except for the low temperature incubations. The concentration of SWNTs in the incubation solution was typically ˜2.5 mg/L as measured by UV-vis-NIR absorption spectrum, and the cell density was ˜2×10^5 cells/well. Adherent HeLa cells were either trypsinized to detach from the Petri dishes to form a suspension or were seeded overnight in chambered cover-slides.
Both the protein and DNA molecules were labeled with a fluorescent tag (by either Cy3 or Alexa Fluor 488) to allow for confocal fluorescence imaging and flow cytometry analysis.
We carried out incubations of protein-SWNT and DNA-SWNT with HL60 and HeLa cells at 4° C. and with cells pretreated with NaN3.

[5] = system: HL-60 cells; assay: Cell viability study with PEG-phospholipid functionalized SWNTs (propidium iodide); type: cell-based
Description: HL-60 cells were incubated and then washed to remove excess nanotubes, as described above. The cells were then placed into the incubator for an additional 24 h with the RPMI medium. The cells were then examined through a confocal microscope, after being stained with 2% (v/v) of propidium iodide (Biochemika), a common stain for dead cells. Control experiments were carried out for cells without exposure to nanotubes.
The confocal images (not shown) of HL-60 cells were obtained (a) untreated (b) treated with FTIC-PEG-PE modified CNTs for 90 min at 37° C. Cells were washed and allowed to incubate for an additional 24 h prior to confocal analysis. Propidium iodide is added to the suspension in order to stain for dead cells (red cells in the images).

[6] = system: endosomal compartments of cells; assay: Endosome release of protein-SWNT conjugates by chloroquine (confocal); type: cell-based
Excerpt: A.; Murthy, N.; Press, O. W.; Tirrell, D. A.; Hoffman, A. S.; Stayton, P. S. Bioconj. Chem. 1999, 10, 401; Cho, Y. W.; Kim, J. D.; Park, K. J. Pharm. Pharmacol. 2003, 55, 721). These methods make use of the pH difference across the endosome membrane and the pH response of the polymers or amines. For SWNT transporters, similar complexation schemes can be developed to afford nanotube transporters containing an endosome-releasing agent. While such an effort warrants detailed investigations separately from the current work, we describe here the release of internalized protein-SWNT conjugates from the endosomal compartments by adding chloroquine to cell medium during incubation of cells in protein-SWNT conjugates. […] The resulting osmotic pressure can lead to swelling of the endosomal compartments and eventual rupture (Ogris, M.; Steinlein, P.; Kursa, M.; Mechtler, K.; Kircheis, R.; Wagner, E. Gene Ther. 1998, 5, 1425).
In experiments carried out with and without chloroquine, we noticed a difference in the distribution of the detected fluorescence inside the cells. […] FIG. 2 (a) Cells are incubated with (a) SWNT-CytC conjugate and (b) SWNT-CytC+100 μM of chloroquine at 37° C. and 5% CO2 Confocal images are taken immediately after incubation and washing. […]

[7] = system: NIH-3T3 cells; assay: Apoptosis assay by Annexin V-FITC staining; type: cell-based
Excerpt: We use Annexin V labeled with fluorescein isothiocyanate (Molecular Probes) as an early stage apoptosis marker. One of the earliest indications of apoptosis is the translocation of the membrane phospholipid phosphatidylserine (PS) from the inner to the outer leaflet of the plasma membrane. Once exposed to the extracellular environment, binding sites on PS become available for Annexin V, a ˜35 kDa Ca^2+-dependent, phospholipid binding protein with a high affinity for PS (Pigault, C.; Follenius-Wund, A.; Schmutz, M.; Freyssinet, J.; Brisson, A. J. Mol. Biol. 1994, 236, 199) (also see Sigma Technical Bulletin number MB-390). In this study, NIH 3T3 cells were plated and incubated with SWNT-cytochrome c as described above. […] The cells were co-stained with propidium iodide and immediately analyzed by flow cell cytometry. Apoptosis data in FIG. 3 were for cells free of PI-staining recorded ˜4-5 h after exposure to chloroquine with or without (for control) cyt c-SWNT conjugates.
HeLa (human cervix carcinoma) and NIH-3T3 cell lines, shown previously to undergo cyt-c-induced apoptosis were investigated in this study for intracellular transporting of cyt-c with SWNTs and for apoptosis assay (Cai). Unlike the proteins used for other uptake experiments, cyt-c used for binding to SWNTs and transported inside cells for apoptosis assay were free of any fluorescence label. […]

Carbon black
cell entry and siRNA delivery [1]: able to enter cells and deliver siRNA into cells | silencing effect compared to SWNT conjugates (FIG. 10A) ([1]; ~20 nM nanoparticle): greater silencing efficiency at day 3

SA: Fluoresceinated streptavidin protein alone, MW ~60 kD
fluorescence of cells by flow cytometry [2]: only slightly greater than the background fluorescence of untreated cells

SWNT-SA conjugate: Streptavidin without fluorescent label non-specifically bound to oxidized SWNTs
cell proliferation (absorbance at 490 nm) [3]: does not show any deviation from the proliferation of untreated cells

SWNT-protein: Fluorescently labeled BSA non-specifically bound to oxidized Hipco SWNTs
cellular internalization ([4]; 1-3 h at 37 °C): cellular internalization | level of fluorescence in the cells ([4]; 4 °C incubation and NaN3 pretreatment (ATP depletion)): considerably lower

Tween-20
effect of surfactant exposure on cells [5]: Cells tended to die

cyt-c-SWNT: Cytochrome c (12 kD) non-covalently bound to oxidized SWNTs
distribution of fluorescence inside the cells ([6]; 100 μM chloroquine): diffuse and uniform | distribution of fluorescence inside the cells ([6]; absence of chloroquine): discrete punctate fluorescence spots | percentage of apoptosed cells versus cyt-c alone ([7]; Annexin V-FITC staining): significantly higher percentages of apoptosed cells | degree of apoptosis with versus without chloroquine ([7]; in the presence of chloroquine): Higher degrees of apoptosis
